Assay results taken from patent US11053204B2, “Pyrimidinyloxy benzene derivatives as herbicides” (FMC Corporation, priority 2015, dated 2021).

Columns and labels:
Type in all cases: in vivo
[1] = system: Canada thistle (Cirsium arvense); assay: Test C postemergence, plant response rating; details: for Canada Thistle plant response rating: scale 0 to 100 (0 no effect, 100 complete control)
Summary of the method: (§1)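 Both timings shared one formulation, a non-phytotoxic solvent mixture with surfactant, and a greenhouse period of 13 to 15 d. Preemergence used seeded loam/sand or silt loam soil, postemergence used 2 to 18 cm plants; visual ratings ran from 0 (no effect) to 100 (complete control).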

[2] = system: buckwheat, wild (wild buckwheat, Polygonum convolvulus); assay: Test C postemergence, plant response rating; details: for Buckwheat, Wild plant response rating: scale 0 to 100 (0 no effect, 100 complete control)
Summary of the method: as §1

[3] = system: field poppy (Papaver rhoeas); assay: Test C postemergence, plant response rating; details: for Field Poppy plant response rating: scale 0 to 100 (0 no effect, 100 complete control)
Summary of the method: as §1

[4] = system: field violet (Viola arvensis); assay: Test C postemergence, plant response rating; details: for Field Violet plant response rating: scale 0 to 100 (0 no effect, 100 complete control)
Summary of the method: as §1

[5] = system: geranium, cutleaf (cutleaf geranium, Geranium dissectum); assay: Test C postemergence, plant response rating; details: for Geranium, Cutleaf plant response rating: scale 0 to 100 (0 no effect, 100 complete control)
Summary of the method: as §1

[6] = system: johnsongrass (Sorghum halepense); assay: Test C postemergence, plant response rating; details: for Johnsongrass plant response rating: scale 0 to 100 (0 no effect, 100 complete control)
Summary of the method: as §1

[7] = system: nightshade (eastern black nightshade, Solanum ptycanthum); assay: Test C postemergence, plant response rating; details: for Nightshade plant response rating: scale 0 to 100 (0 no effect, 100 complete control)
Summary of the method: as §1

[8] = system: pigweed, palmer (palmer pigweed, Amaranthus palmeri); assay: Test C postemergence, plant response rating; details: for Pigweed, Palmer plant response rating: scale 0 to 100 (0 no effect, 100 complete control)
Summary of the method: as §1

[9] = system: speedwell (bird's-eye speedwell, Veronica persica); assay: Test C postemergence, plant response rating; details: for Speedwell plant response rating: scale 0 to 100 (0 no effect, 100 complete control)
Summary of the method: as §1

[10] = system: surinam grass (Brachiaria decumbens); assay: Test C postemergence, plant response rating; details: for Surinam Grass plant response rating: 125 g ai/ha, scale 0 to 100 (0 no effect, 100 complete control)
Summary of the method: as §1

[11] = system: wild mustard (Sinapis arvensis); assay: Test C postemergence, plant response rating; details: for Mustard, Wild plant response rating: scale 0 to 100 (0 no effect, 100 complete control)
Summary of the method: as §1

[12] = system: wild poinsettia (Euphorbia heterophylla); assay: Test C postemergence, plant response rating; details: for Poinsettia, Wild plant response rating: scale 0 to 100 (0 no effect, 100 complete control)
Summary of the method: as §1

[13] = system: windgrass (Apera spica-venti); assay: Test C postemergence, plant response rating; details: for Windgrass plant response rating: 125 g ai/ha, scale 0 to 100 (0 no effect, 100 complete control)
Summary of the method: as §1

[14] = system: galium (catchweed bedstraw, Galium aparine); assay: Test C preemergence, plant response rating
[15] = system: johnsongrass (Sorghum halepense); assay: Test C preemergence, plant response rating
[16] = system: pigweed, palmer (palmer pigweed, Amaranthus palmeri); assay: Test C preemergence, plant response rating
kochia (Kochia scoparia) = assay: Test C preemergence, plant response rating
[17] = system: windgrass (Apera spica-venti); assay: Test C preemergence, plant response rating

## FC(F)(F)CCCCc1c(Cl)cccc1Oc1ncc(Cl)cn1 [Compound 137]
[1]; 16 g ai/ha, scale of 0 to 100
  Plant response rating, Canada Thistle: 75
[1]; 31 g ai/ha, scale 0 to 100
  Plant response rating, Canada Thistle: 85
[1]; 62 g ai/ha
  Canada Thistle plant response rating: 98
[1]; 125 g ai/ha
  Canada Thistle plant response rating: 100
[2]; 16 g ai/ha, scale of 0 to 100
  Plant response rating, Buckwheat, Wild: 70
[2]; 31 g ai/ha, scale 0 to 100
  Plant response rating, Buckwheat, Wild: 75
[2]; 62 g ai/ha
  Buckwheat, Wild plant response rating: 98
[2]; 125 g ai/ha
  Buckwheat, Wild plant response rating: 90
[3]; 16 g ai/ha, scale of 0 to 100
  Plant response rating, Field Poppy: 85
[3]; 31 g ai/ha, scale 0 to 100
  Plant response rating, Field Poppy: 95
[3]; 62 g ai/ha
  Field Poppy plant response rating: 100
[3]; 125 g ai/ha
  Field Poppy plant response rating: 100
[4]; 16 g ai/ha, scale of 0 to 100
  Plant response rating, Field Violet: 65
[4]; 31 g ai/ha, scale 0 to 100
  Plant response rating, Field Violet: 70
[4]; 62 g ai/ha
  Field Violet plant response rating: 85
[4]; 125 g ai/ha
  Field Violet plant response rating: 85
[5]; 16 g ai/ha, scale of 0 to 100
  Plant response rating, Geranium, Cutleaf: 10
[5]; 31 g ai/ha, scale 0 to 100
  Plant response rating, Geranium, Cutleaf: 25
[5]; 62 g ai/ha
  Geranium, Cutleaf plant response rating: 30
[5]; 125 g ai/ha
  Geranium, Cutleaf plant response rating: 35
[6]; 16 g ai/ha, scale of 0 to 100
  Plant response rating, Johnsongrass: 5
[6]; 31 g ai/ha, scale 0 to 100
  Plant response rating, Johnsongrass: 10
[6]; 62 g ai/ha
  Johnsongrass plant response rating: 10
[6]; 125 g ai/ha
  Johnsongrass plant response rating: 25
[7]; 16 g ai/ha, scale of 0 to 100
  Plant response rating, Nightshade: 60
[7]; 31 g ai/ha, scale 0 to 100
  Plant response rating, Nightshade: 80
[7]; 62 g ai/ha
  Nightshade plant response rating: 90
[7]; 125 g ai/ha
  Nightshade plant response rating: 90
[8]; 16 g ai/ha, scale of 0 to 100
  Plant response rating, Pigweed, Palmer: 20
[8]; 31 g ai/ha, scale 0 to 100
  Plant response rating, Pigweed, Palmer: 45
[8]; 62 g ai/ha
  Pigweed, Palmer plant response rating: 50
[8]; 125 g ai/ha
  Pigweed, Palmer plant response rating: 70
[9]; 16 g ai/ha, scale of 0 to 100
  Plant response rating, Speedwell: 75
[9]; 31 g ai/ha, scale 0 to 100
  Plant response rating, Speedwell: 80
[9]; 62 g ai/ha
  Speedwell plant response rating: 100
[9]; 125 g ai/ha
  Speedwell plant response rating: 100
[10]; 16 g ai/ha, scale of 0 to 100
  Plant response rating, Surinam Grass: 5
[10]; 31 g ai/ha, scale 0 to 100
  Plant response rating, Surinam Grass: 10
[10]
  Surinam Grass plant response rating: 20
[11]; 16 g ai/ha, scale of 0 to 100
  Plant response rating, Mustard, Wild: 100
[11]; 31 g ai/ha, scale 0 to 100
  Plant response rating, Mustard, Wild: 85
[11]; 62 g ai/ha
  Mustard, Wild plant response rating: 100
[11]; 125 g ai/ha
  Mustard, Wild plant response rating: 100
[12]; 16 g ai/ha, scale of 0 to 100
  Plant response rating, Poinsettia, Wild: 15
[12]; 31 g ai/ha, scale 0 to 100
  Plant response rating, Poinsettia, Wild: 65
[12]; 62 g ai/ha
  Poinsettia, Wild plant response rating: 65
[12]; 125 g ai/ha
  Poinsettia, Wild plant response rating: 75
[13]; 16 g ai/ha, scale of 0 to 100
  Plant response rating, Windgrass: 10
[13]; 31 g ai/ha, scale 0 to 100
  Plant response rating, Windgrass: 10
[13]
  Windgrass plant response rating: 45

## O=C(CCCC(F)(F)F)c1c(Oc2ncc(Cl)cn2)cccc1C(F)(F)F [Compound 125]
[14]; 31 g ai/ha, scale 0 to 100
  Plant response rating, Galium: 5
[14]; 62 g ai/ha, scale 0 to 100
  Plant response rating, Galium: 30
[14]; 125 g ai/ha, scale of 0 to 100
  Plant response rating, Galium: 80
[15]; 31 g ai/ha, scale 0 to 100
  Plant response rating, Johnsongrass: 5
[15]; 62 g ai/ha, scale 0 to 100
  Plant response rating, Johnsongrass: 60
[15]; 125 g ai/ha, scale of 0 to 100
  Plant response rating, Johnsongrass: 75
[16]; 31 g ai/ha, scale 0 to 100
  Plant response rating, Pigweed, Palmer: 100
[16]; 62 g ai/ha, scale 0 to 100
  Plant response rating, Pigweed, Palmer: 100
[16]; 125 g ai/ha, scale of 0 to 100
  Plant response rating, Pigweed, Palmer: 100
Kochia (Kochia scoparia); 31 g ai/ha, scale 0 to 100
  Plant response rating, Kochia: 60
Kochia (Kochia scoparia); 62 g ai/ha, scale 0 to 100
  Plant response rating, Kochia: 90
Kochia (Kochia scoparia); 125 g ai/ha, scale of 0 to 100
  Plant response rating, Kochia: 98
[17]; 31 g ai/ha, scale 0 to 100
  Plant response rating, Windgrass: 85
[17]; 62 g ai/ha, scale 0 to 100
  Plant response rating, Windgrass: 90
[17]; 125 g ai/ha, scale of 0 to 100
  Plant response rating, Windgrass: 100
[1]; 16 g ai/ha, scale of 0 to 100
  Plant response rating, Canada Thistle: 80
[1]; 31 g ai/ha, scale 0 to 100
  Plant response rating, Canada Thistle: 85
[1]; 62 g ai/ha
  Canada Thistle plant response rating: 90
[1]; 125 g ai/ha
  Canada Thistle plant response rating: 90
[2]; 16 g ai/ha, scale of 0 to 100
  Plant response rating, Buckwheat, Wild: 70
[2]; 31 g ai/ha, scale 0 to 100
  Plant response rating, Buckwheat, Wild: 65
[2]; 62 g ai/ha
  Buckwheat, Wild plant response rating: 75
[2]; 125 g ai/ha
  Buckwheat, Wild plant response rating: 98
[3]; 16 g ai/ha, scale of 0 to 100
  Plant response rating, Field Poppy: 90
[3]; 31 g ai/ha, scale 0 to 100
  Plant response rating, Field Poppy: 95
[3]; 62 g ai/ha
  Field Poppy plant response rating: 100
[3]; 125 g ai/ha
  Field Poppy plant response rating: 100
[4]; 16 g ai/ha, scale of 0 to 100
  Plant response rating, Field Violet: 90
[4]; 31 g ai/ha, scale 0 to 100
  Plant response rating, Field Violet: 98
[4]; 62 g ai/ha
  Field Violet plant response rating: 98
[4]; 125 g ai/ha
  Field Violet plant response rating: 98
[5]; 16 g ai/ha, scale of 0 to 100
  Plant response rating, Geranium, Cutleaf: 25
[5]; 31 g ai/ha, scale 0 to 100
  Plant response rating, Geranium, Cutleaf: 30
[5]; 62 g ai/ha
  Geranium, Cutleaf plant response rating: 55
[5]; 125 g ai/ha
  Geranium, Cutleaf plant response rating: 55
[6]; 16 g ai/ha, scale of 0 to 100
  Plant response rating, Johnsongrass: 5
[6]; 31 g ai/ha, scale 0 to 100
  Plant response rating, Johnsongrass: 5
[6]; 62 g ai/ha
  Johnsongrass plant response rating: 10
[6]; 125 g ai/ha
  Johnsongrass plant response rating: 25
[7]; 16 g ai/ha, scale of 0 to 100
  Plant response rating, Nightshade: 50
[7]; 31 g ai/ha, scale 0 to 100
  Plant response rating, Nightshade: 75
[7]; 62 g ai/ha
  Nightshade plant response rating: 85
[7]; 125 g ai/ha
  Nightshade plant response rating: 90
[8]; 16 g ai/ha, scale of 0 to 100
  Plant response rating, Pigweed, Palmer: 40
[8]; 31 g ai/ha, scale 0 to 100
  Plant response rating, Pigweed, Palmer: 85
[8]; 62 g ai/ha
  Pigweed, Palmer plant response rating: 80
[8]; 125 g ai/ha
  Pigweed, Palmer plant response rating: 85
[9]; 16 g ai/ha, scale of 0 to 100
  Plant response rating, Speedwell: 55
[9]; 31 g ai/ha, scale 0 to 100
  Plant response rating, Speedwell: 70
[9]; 62 g ai/ha
  Speedwell plant response rating: 98
[9]; 125 g ai/ha
  Speedwell plant response rating: 98
[10]; 16 g ai/ha, scale of 0 to 100
  Plant response rating, Surinam Grass: 5
[10]; 31 g ai/ha, scale 0 to 100
  Plant response rating, Surinam Grass: 10
[10]
  Surinam Grass plant response rating: 20
[11]; 16 g ai/ha, scale of 0 to 100
  Plant response rating, Mustard, Wild: 90
[11]; 31 g ai/ha, scale 0 to 100
  Plant response rating, Mustard, Wild: 95
[11]; 62 g ai/ha
  Mustard, Wild plant response rating: 98
[11]; 125 g ai/ha
  Mustard, Wild plant response rating: 100
[12]; 16 g ai/ha, scale of 0 to 100
  Plant response rating, Poinsettia, Wild: 65
[12]; 31 g ai/ha, scale 0 to 100
  Plant response rating, Poinsettia, Wild: 65
[12]; 62 g ai/ha
  Poinsettia, Wild plant response rating: 75
[12]; 125 g ai/ha
  Poinsettia, Wild plant response rating: 85
[13]; 16 g ai/ha, scale of 0 to 100
  Plant response rating, Windgrass: 10
[13]; 31 g ai/ha, scale 0 to 100
  Plant response rating, Windgrass: 15
[13]
  Windgrass plant response rating: 35
